# Data published in patent publication US5571942A, “Ring-substituted 2-amino-1,2,3,4-tetrahydronaphthalenes and 3-aminochromanes” (Eli Lilly and Company, priority 1995, dated 1996).
# Target: T1, 5-HT1A receptors (Rattus norvegicus, UniProt P19327)
# T1 construct: from tissue; host or cells: cerebral cortex (crude synaptosomal membranes) of male Sprague-Dawley rats
# T1 sequence (P19327 1-422): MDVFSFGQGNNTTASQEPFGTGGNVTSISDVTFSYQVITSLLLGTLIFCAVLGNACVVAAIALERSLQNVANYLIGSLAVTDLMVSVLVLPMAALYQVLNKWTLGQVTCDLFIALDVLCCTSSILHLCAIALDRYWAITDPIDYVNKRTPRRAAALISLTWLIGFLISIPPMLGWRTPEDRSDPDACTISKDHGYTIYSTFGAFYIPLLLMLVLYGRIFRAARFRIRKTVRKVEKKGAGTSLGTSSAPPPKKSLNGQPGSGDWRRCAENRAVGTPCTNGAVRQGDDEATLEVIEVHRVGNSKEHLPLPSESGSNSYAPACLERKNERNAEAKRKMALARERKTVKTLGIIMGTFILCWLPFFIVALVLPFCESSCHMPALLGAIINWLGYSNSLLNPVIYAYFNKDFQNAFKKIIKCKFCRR
# Experiment: in vivo elevation of serum corticosterone levels (5-HT1A agonist activity)
# Set-up: species or system rat (male Sprague-Dawley)
# Conditions: sc, one hour after treatment
# Description: (§1) Compounds of this invention were also examined for their in vivo effects on brain 5-HIAA and serum corticosterone levels. Male Sprague-Dawley rats weighting 150-200 g were administered subcutaneously or orally with aqueous solutions of the test compound. One hour after treatment, the rats were decapitated and trunk blood collected. The blood was allowed to clot and then was centrifuged to separate the serum. The concentration of corticosterone in the serum was determined by the spectrofluorometric method of Solem, J. H.; Brinck-Johnsen, T., Scand. J. Clin. Invest. [Suppl. 80], 17, 1 (1965). The whole brains from the decapitated rats were quickly removed, frozen on dry ice, and stored at -15° C. 5-HIAA concentrations were measured by liquid chromatography with electrochemical detection as described by Fuller, R. W.; Snoddy, H. D.; Perry, K. W., Life Sci. 40, 1921 (1987).
# (§2) The results provided in columns 3-5 are indicative of 5-HT1A agonist activity.
row,Structure (SMILES),Corticosterone MED (minimum effective dose elevating serum corticosterone levels) [mg/kg]
1,"CCCN(CCC)C1CCc2cccc(-c3oncc3OC)c2C1 (stereo not shown) [Example 31, 2-Di-n-propylamino-8-(4-methoxyisoxazol-5-yl)-1,2,3,4-tetrahydronaphthalene]",> 1.0
2,"CCCN(CCC)C1CCc2cccc(-c3ccn(C)n3)c2C1 (stereo not shown) [5 (3-yl), 2-Di-n-propylamino-8-(1-methylpyrazol-3-yl)-1,2,3,4-tetrahydronaphthalene]",1.0
3,"CCCN(CCC)C1CCc2cccc(-c3cc(C)on3)c2C1 (stereo not shown) [Example 28, 2-Di-n-propylamino-8-(5-methylisoxazol-3-yl)-1,2,3,4-tetrahydronaphthalene]",> 1.0
4,"CCCN(CCC)C1CCc2cccc(-c3ccno3)c2C1 (stereo not shown) [Example 8, 2-Di-n-propylamino-8-(isoxazol-5-yl)-1,2,3,4-tetrahydronaphthalene]",0.3
5,"CCCN(CCC)C1CCc2cccc(-c3cc(Br)no3)c2C1 (stereo not shown) [Example 20, 2-Di-n-propylamino-8-(3-bromoisoxazol-5-yl)-1,2,3,4-tetrahydronaphthalene]",> 1.0
6,"CCCN(CCC)C1CCc2cccc(-c3nccs3)c2C1 (stereo not shown) [Example 9, 2-Di-n-propylamino-8-(thiazol-2-yl)-1,2,3,4-tetrahydronaphthalene]",> 1.0
7,"CCCN(CCC)C1CCc2cccc(-c3ccncc3)c2C1 (stereo not shown) [Example 16, 2-Di-n-propylamino-8-(pyrid-4-yl)-1,2,3,4-tetrahydronaphthalene]",> 1.0
8,"CCCN(CCC)C1CCc2cccc(-c3cc(SC)no3)c2C1 (stereo not shown) [Example 30, 2-Di-n-propylamino-8-(3-methylthioisoxazol-5-yl)-1,2,3,4-tetrahydronaphthalene]",> 1.0
9,"CCCN(CCC)C1CCc2cccc(-c3cc[nH]n3)c2C1 (stereo not shown) [Example 33, 2-Di-n-propylamino-8-(pyrazol-3-yl)-1,2,3,4-tetrahydronaphthalene]",> 1.0
10,"CCCN(CCC)C1CCc2cccc(-c3cc(C)no3)c2C1 (stereo not shown) [Example 23, 2-Di-n-propylamino-8-(3-methylisoxazol-5-yl)-1,2,3,4-tetrahydronaphthalene]",> 1.0
11,"CCCN(CCC)C1CCc2cccc(-c3cccnc3)c2C1 (stereo not shown) [Example 14, 2-Di-n-propylamino-8-(pyrid-3-yl)-1,2,3,4-tetrahydronaphthalene]",> 1.0
12,"CCCN(CCC)C1CCc2cccc(-c3oncc3C)c2C1 (stereo not shown) [Example 21, 2-Di-n-propylamino-8-(4-methylisoxazol-5-yl)-1,2,3,4-tetrahydronaphthalene]",1.0
13,CCCN(CCC)C1CCc2cccc(-c3ccon3)c2C1 (stereo not shown) [Example 25],0.3

# Target: T1, 5-HT1A receptors
# Experiment: in vivo lowering of brain 5-HIAA levels (5-HT1A agonist activity)
# Set-up: species or system rat (male Sprague-Dawley)
# Conditions: po, one hour after treatment
# Description: as §1, §2
row,Structure (SMILES),5-HIAA MED (minimum effective dose lowering brain 5-HIAA levels) [mg/kg]
1,"CCCN(CCC)C1CCc2cccc(-c3ccno3)c2C1 (stereo not shown) [Example 8, 2-Di-n-propylamino-8-(isoxazol-5-yl)-1,2,3,4-tetrahydronaphthalene]",3
2,"CCCN(CCC)C1CCc2cccc(-c3oncc3C)c2C1 (stereo not shown) [Example 21, 2-Di-n-propylamino-8-(4-methylisoxazol-5-yl)-1,2,3,4-tetrahydronaphthalene]",> 10
3,CCCN(CCC)C1CCc2cccc(-c3ccon3)c2C1 (stereo not shown) [Example 25],10

# Same assay, conditions: sc, one hour after treatment
row,Structure (SMILES),5-HIAA MED (minimum effective dose lowering brain 5-HIAA levels) [mg/kg]
1,"CCCN(CCC)C1CCc2cccc(-c3oncc3OC)c2C1 (stereo not shown) [Example 31, 2-Di-n-propylamino-8-(4-methoxyisoxazol-5-yl)-1,2,3,4-tetrahydronaphthalene]",1.0
2,"CCCN(CCC)C1CCc2cccc(-c3ccn(C)n3)c2C1 (stereo not shown) [5 (3-yl), 2-Di-n-propylamino-8-(1-methylpyrazol-3-yl)-1,2,3,4-tetrahydronaphthalene]",> 1.0
3,"CCCN(CCC)C1CCc2cccc(-c3cc(C)on3)c2C1 (stereo not shown) [Example 28, 2-Di-n-propylamino-8-(5-methylisoxazol-3-yl)-1,2,3,4-tetrahydronaphthalene]",> 1.0
4,"CCCN(CCC)C1CCc2cccc(-c3ccno3)c2C1 (stereo not shown) [Example 8, 2-Di-n-propylamino-8-(isoxazol-5-yl)-1,2,3,4-tetrahydronaphthalene]",0.1
5,"CCCN(CCC)C1CCc2cccc(-c3cc(Br)no3)c2C1 (stereo not shown) [Example 20, 2-Di-n-propylamino-8-(3-bromoisoxazol-5-yl)-1,2,3,4-tetrahydronaphthalene]",> 1.0
6,"CCCN(CCC)C1CCc2cccc(-c3nccs3)c2C1 (stereo not shown) [Example 9, 2-Di-n-propylamino-8-(thiazol-2-yl)-1,2,3,4-tetrahydronaphthalene]",> 1.0
7,"CCCN(CCC)C1CCc2cccc(-c3ccncc3)c2C1 (stereo not shown) [Example 16, 2-Di-n-propylamino-8-(pyrid-4-yl)-1,2,3,4-tetrahydronaphthalene]",> 1.0
8,"CCCN(CCC)C1CCc2cccc(-c3cc(SC)no3)c2C1 (stereo not shown) [Example 30, 2-Di-n-propylamino-8-(3-methylthioisoxazol-5-yl)-1,2,3,4-tetrahydronaphthalene]",> 1.0
9,"CCCN(CCC)C1CCc2cccc(-c3cc[nH]n3)c2C1 (stereo not shown) [Example 33, 2-Di-n-propylamino-8-(pyrazol-3-yl)-1,2,3,4-tetrahydronaphthalene]",> 1.0
10,"CCCN(CCC)C1CCc2cccc(-c3cc(C)no3)c2C1 (stereo not shown) [Example 23, 2-Di-n-propylamino-8-(3-methylisoxazol-5-yl)-1,2,3,4-tetrahydronaphthalene]",1.0
11,"CCCN(CCC)C1CCc2cccc(-c3cccnc3)c2C1 (stereo not shown) [Example 14, 2-Di-n-propylamino-8-(pyrid-3-yl)-1,2,3,4-tetrahydronaphthalene]",> 1.0
12,"CCCN(CCC)C1CCc2cccc(-c3oncc3C)c2C1 (stereo not shown) [Example 21, 2-Di-n-propylamino-8-(4-methylisoxazol-5-yl)-1,2,3,4-tetrahydronaphthalene]",0.3
13,CCCN(CCC)C1CCc2cccc(-c3ccon3)c2C1 (stereo not shown) [Example 25],0.3

# Target: T1, 5-HT1A receptors
# Experiment: in vitro binding: inhibition of 3H-8-OH-DPAT binding to synaptosomal membranes from rat cerebral cortex
# Set-up: species or system rat (male Sprague-Dawley)
# Conditions: 3H-8-OH-DPAT 2 nM, 37° C., 10 min, pH 7.4
# Excerpt: Sites specifically labeled by tritiated 8-hydroxy-2-dipropylamino-1,2,3,4-tetrahydronaphthalene (^3 H-8-OH-DPAT) have been identified as 5-HT1A receptors. This general procedure is set forth in Wong et al., J. Neural Transm. 71:207-218 (1988).
# Male Sprague-Dawley rats (110-150 g) from Harlan Industries (Cumberland, Ind.) were fed a Purina Chow ad libitum for at least 3 days before being used in the studies. Rats were killed by decapitation. The brains were rapidly removed, and the cerebral cortices were dissected out at 4° C.
# Brain tissues were homogenized in 0.32M sucrose. After centrifugation at 1000×g for 10 min and then at 17000×g for 20 min, a crude synaptosomal fraction was sedimented. The pellet was suspended in 100 vol of 50 mM Tris-HCl, pH 7.4, incubated at 37° C. for 10 min, and centrifuged at 50000×g for 10 min. The process was repeated and the final pellet was suspended in ice-chilled 50 mM Tris-HCl, pH 7.4.
# Binding of ^3 H-8-OH-DPAT was performed according to the previously described method [Wong et al., J. Neural Transm. 64:251-269 (1985)]. Briefly, synaptosomal membranes isolated from cerebral cortex were incubated at 37° C. for 10 min. in 2 ml of 50 mM Tris-HCl, pH 7.4; 10 mM pargyline; 0.6 mM ascorbic acid; 5 mM CaCl2; 2 nM ^3 H-8-OH-DPAT and 0.1 to 1000 nm of the compound of interest. Binding was terminated by filtering samples under reduced pressure through glass fiber (GFB) filters. The filters were washed twice with 5 ml of ice cold buffer and placed in scintillation vials with 10 ml of PCS (Amersham/Searle) scintillation fluid. Radioactivity was measured with a liquid scintillation spectrometer. Unlabeled 8-OH-DPAT at 10 μM was also included in separate samples to establish non-specific binding. Specific binding of ^3 H-8-OH-DPAT is defined as the difference of radioactivity bound in the absence and in the presence of 10 μM unlabeled 8-OH-DPAT.
# as §2
row,Structure (SMILES),IC50 [nM]
1,"CCCN(CCC)C1CCc2cccc(-c3ccnn3C)c2C1 (stereo not shown) [5 (5-yl), 2-Di-n-propylamino-8-(1-methylpyrazol-5-yl)-1,2,3,4-tetrahydronaphthalene]",7.2
2,"CCCN(CCC)C1CCc2cccc(-c3ccn(C)n3)c2C1 (stereo not shown) [5 (3-yl), 2-Di-n-propylamino-8-(1-methylpyrazol-3-yl)-1,2,3,4-tetrahydronaphthalene]",5
3,"CCCN(CCC)C1CCc2cccc(-c3ccc4ccccc4n3)c2C1 (stereo not shown) [Example 12, 2-Di-n-propylamino-8-(quinol-2-yl)-1,2,3,4-tetrahydronaphthalene]",87
4,"CCCN(CCC)C1CCc2cccc(-c3cc(C)on3)c2C1 (stereo not shown) [Example 28, 2-Di-n-propylamino-8-(5-methylisoxazol-3-yl)-1,2,3,4-tetrahydronaphthalene]",3.8
5,"CCCN(CCC)C1CCc2cccc(-c3ccccn3)c2C1 (stereo not shown) [Example 15, 2 -Di-n-propylamino-8-(pyrid-2-yl)-1,2,3,4-tetrahydronaphthalene]",33
6,"CCCN(CCC)C1CCc2cccc(-c3noc(-c4ccccc4)n3)c2C1 (stereo not shown) [Example 2, 2-Di-n-propylamine-8-(5-phenyl-1,2,4-oxadiazol-3-yl)-1,2,3,4-tetrahydronaphthalene]",36
7,"CCCN(CCC)C1CCc2cccc(-c3cnc4ccccc4c3)c2C1 (stereo not shown) [Example 13, 2-Di-n-propylamino-8-(quinol-3-yl)-1,2,3,4-tetrahydronaphthalene]",16
8,"CCCN(CCC)C1CCc2cccc(-c3nccs3)c2C1 (stereo not shown) [Example 9, 2-Di-n-propylamino-8-(thiazol-2-yl)-1,2,3,4-tetrahydronaphthalene]",12
9,"CCCN(CCC)C1CCc2cccc(-c3ccncc3)c2C1 (stereo not shown) [Example 16, 2-Di-n-propylamino-8-(pyrid-4-yl)-1,2,3,4-tetrahydronaphthalene]",9.8
10,"CCCN(CCC)C1CCc2cccc(-c3cc(O)[nH]n3)c2C1 (stereo not shown) [Example 6, 2-Di-n-propylamino-8-(5-hydroxypyrazol-3-yl)-1,2,3,4-tetrahydronaphthalene]",62
11,"CCCN(CCC)C1CCc2cccc(-c3nc(C)no3)c2C1 (stereo not shown) [Example 35, 2-Di-n-propylamino-8-(3-methyl-1,2,4-oxidiazol-5-yl)-1,2,3,4-tetrahydronaphthalene]",16
12,"CCCN(CCC)C1CCc2cccc(-c3cc[nH]n3)c2C1 (stereo not shown) [Example 33, 2-Di-n-propylamino-8-(pyrazol-3-yl)-1,2,3,4-tetrahydronaphthalene]",4.9
13,"CCCN(CCC)C1CCc2cccc(-c3nc(-c4ccccc4)no3)c2C1 (stereo not shown) [Example 34, 2-Di-n-propylamino-8-(3-phenyl-1,2,4-oxadiazol-5-yl)-1,2,3,4-tetrahydronaphthalene]",11
14,"CCCN(CCC)C1CCc2cccc(-c3ccnc(N)n3)c2C1 (stereo not shown) [Example 32, 2-Di-n-propylamino-8-(2-aminopyrimidin-4-yl)-1,2,3,4-tetrahydronaphthalene]",67
15,"CCCN(CCC)C1CCc2cccc(-c3cccnc3)c2C1 (stereo not shown) [Example 14, 2-Di-n-propylamino-8-(pyrid-3-yl)-1,2,3,4-tetrahydronaphthalene]",7.2
16,"CCCN(CCC)C1CCc2cccc(-c3csc(N)n3)c2C1 (stereo not shown) [Example 10, 2-Di-n-propylamino-8-(2-aminothiazol-4-yl)-1,2,3,4-tetrahydronaphthalene]",19
17,CCCN(CCC)C1CCc2cccc(-c3ccon3)c2C1 (stereo not shown) [Example 25],1.4
